Assay results: patent US10323001B2, “Compositions for modulating a kinase cascade and methods of use thereof” (Athenex, Inc., priority 2006, dated 2019)
Structures can show the parent of a compound that is named as a salt. Where two headings read alike, the source gives them in different places.

Tests used:
[1] = Solubility in DI water and pH 2.0 phosphate buffer; assay type: physicochemical
Procedure: The table below summarizes additional characterization data for the fumaric and maleate KX2-391.MSA salts and compares it to free base, bis-HCl, and MSA salts described above. The results in the table below were obtained using the procedures described above in Examples 5 (XRPD), 6 (DSC), 7 (TGA), and 8 (moisture-sorption).
Solubility experiments were also performed using pH 2.0 phosphate buffer and DI water pH 6.9 and KX2-391.MSA, Form A. Each vial was filled with approximately 50 mg of KX2-391.MSA, Form A and 100 μL aliquots of the corresponding solvent was added until complete dissolution was observed, followed by stirring at room temperature for one and five days. The solids obtained were isolated by filtration, dried under vacuum at room temperature and analyzed by HPLC. The initial HPLC purity of KX2-391.MSA, Form A was 99.4 (% area). The solubility by HPLC of KX2-391.MSA, Form A in phosphate buffer/RT was >500 mg/mL and HPLC purity was measured to be 99.4. The solubility by HPLC of KX2-391.MSA, Form A in DI H2O/RT was >500 mg/mL and HPLC purity was measured to be 99.4.

[2] = Humidity chamber hygroscopicity study (salt solution chambers, visual inspection); assay type: physicochemical; design: key to Observations/Time (hr): FF—Free flowing powder; D—Complete deliquescence of sample observed; CC—Colour change of sample observed; conditions: for XRPD after humidity chamber (compared with XRPD pattern of sponsor lot) / HPLC Assay (% Area Purity) after humidity chamber: up to 120 hr; for HPLC Assay (% Area Purity) after humidity chamber: initial 99.4
Procedure: Further characterization of the hygroscopicity of the mesylate salt was performed using several humidity chambers to cover a range of humidity from 75, 88 to 95% RH. The 75, 88, and 95% RH chambers were prepared with NaCl, BaCl2.2H2O, and Na2HPO4.12 H2O respectively and were equilibrated for 48 hours prior to introducing the samples. Samples were placed into aluminum pans and monitored by visual inspection for up to five days. Table 3 summarizes the observations at 0, 3, 5, 24, 48, 72, 96 and 120 hour time points.
Moisture sorption studies conducted at ambient temperature utilizing salt solution humidity chambers were conducted to evaluate solid stability by visual inspection.

pH of solubility sample [1]: 4.6
HPLC purity after solubility experiment ([1]; pH 2): 99.4 % area
Solubility mg/mL ([1]; pH 2): pH 2: >500 mg/mL
pH of solubility sample ([1]; pH 2): (4.3)
solubility ([1]; pH 2, aqueous buffer, thermodynamic from solid): > 500 mg/mL
HPLC purity after solubility experiment ([1]; pH 6.9): 99.4 % area
solubility ([1]; pH 6.9): > 500 mg/mL
solubility ([1]; pH 6.9, water, thermodynamic from solid): > 500 mg/mL
Observations/Time (hr) ([2]; 75% RH (NaCl) chamber, 0 hr): FF
Observations/Time (hr) ([2]; 75% RH (NaCl) chamber, 3 hr): FF
Observations/Time (hr) ([2]; 75% RH (NaCl) chamber, 5 hr): FF
Observations/Time (hr) ([2]; 75% RH (NaCl) chamber, 24 hr): FF
Observations/Time (hr) ([2]; 75% RH (NaCl) chamber, 48 hr): FF
Observations/Time (hr) ([2]; 75% RH (NaCl) chamber, 72 hr): FF
Observations/Time (hr) ([2]; 75% RH (NaCl) chamber, 96 hr): FF
Observations/Time (hr) ([2]; 75% RH (NaCl) chamber, 120 hr): FF
XRPD after humidity chamber (compared with XRPD pattern of sponsor lot) ([2]; 75% RH (NaCl) chamber): Consistent
HPLC Assay (% Area Purity) after humidity chamber ([2]; 75% RH (NaCl) chamber): 99.4 % Area Purity
stability in humidity chamber (deliquescence, decomposition by HPLC) ([2]; 75% RH, up to five days): stable
Observations/Time (hr) ([2]; 88% RH (BaCl2•2H2O) chamber, 0 hr): FF
Observations/Time (hr) ([2]; 88% RH (BaCl2•2H2O) chamber, 3 hr): CC
Observations/Time (hr) ([2]; 88% RH (BaCl2•2H2O) chamber, 5 hr): CC
Observations/Time (hr) ([2]; 88% RH (BaCl2•2H2O) chamber, 24 hr): CC
Observations/Time (hr) ([2]; 88% RH (BaCl2•2H2O) chamber, 48 hr): CC
Observations/Time (hr) ([2]; 88% RH (BaCl2•2H2O) chamber, 72 hr): CC
Observations/Time (hr) ([2]; 88% RH (BaCl2•2H2O) chamber, 96 hr): CC
Observations/Time (hr) ([2]; 88% RH (BaCl2•2H2O) chamber, 120 hr): CC
XRPD after humidity chamber (compared with XRPD pattern of sponsor lot) ([2]; 88% RH (BaCl2•2H2O) chamber): Consistent
HPLC Assay (% Area Purity) after humidity chamber ([2]; 88% RH (BaCl2•2H2O) chamber): 89.3 % Area Purity
colour of material after exposure ([2]; 88% RH, up to five days): darker color yellow
degradation by HPLC ([2]; 88% RH, up to five days): roughly 10 % area
deliquescence on exposure to high humidity ([2]; 95% RH): deliquesce within three hours
Observations/Time (hr) ([2]; 95% RH (Na2HPO4•12H2O) chamber, 0 hr): FF
Observations/Time (hr) ([2]; 95% RH (Na2HPO4•12H2O) chamber, 3 hr): D
Observations/Time (hr) ([2]; 95% RH (Na2HPO4•12H2O) chamber, 5 hr): D
Observations/Time (hr) ([2]; 95% RH (Na2HPO4•12H2O) chamber, 24 hr): D
Observations/Time (hr) ([2]; 95% RH (Na2HPO4•12H2O) chamber, 48 hr): D
Observations/Time (hr) ([2]; 95% RH (Na2HPO4•12H2O) chamber, 72 hr): D
Observations/Time (hr) ([2]; 95% RH (Na2HPO4•12H2O) chamber, 96 hr): D
Observations/Time (hr) ([2]; 95% RH (Na2HPO4•12H2O) chamber, 120 hr): D
Structure (SMILES): O=C(Cc1ccc(-c2ccc(OCCN3CCOCC3)cc2)cn1)NCc1ccccc1 [KX2-391.MSA, 2-(5-(4-(2-morpholinoethoxy)phenyl)pyridine-2-yl)-N-benzylacetamide mesylate]
